Source: patent publication US12187684B2, “Benzimidazole derivatives as modulators of retinoid-related orphan receptor gamma (RORγ) and pharmaceutical use thereof” (Jiangsu Hengrui Medicine Co., Ltd., priority 2018, dated 2025)

Tests used:
RORγ LBD-GST tagged = target: T1, RORγ LBD-GST tagged (Homo sapiens, UniProt P51449); assay: LanthaScreen TR-FRET RORγ coactivator assay; assay type: biochemical; details: Fluorescein-D22 coactivator peptide, 1 hour room temperature
T1 construct: RORγ LBD-GST tagged (Cat No. RORC-114H, Creative Biomart); purchased Creative Biomart RORC-114H
T1 sequence (P51449 269-508 limits assumed): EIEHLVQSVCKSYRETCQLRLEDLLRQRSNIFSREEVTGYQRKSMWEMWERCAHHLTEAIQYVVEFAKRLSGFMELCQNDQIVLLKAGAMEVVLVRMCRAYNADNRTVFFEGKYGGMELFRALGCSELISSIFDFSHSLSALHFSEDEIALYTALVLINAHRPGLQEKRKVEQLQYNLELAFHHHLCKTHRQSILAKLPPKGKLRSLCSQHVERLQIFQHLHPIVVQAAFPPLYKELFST
How it was run: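 GST-tagged RORγ LBD (25 ng/reaction) was incubated in coregulator buffer D with 5 mM DTT and compound (top 3 μM, 7-fold steps, 7 doses), then with a mix containing 0.6 μM fluorescein-D22 peptide and 8 nM Tb anti-GST antibody. After 1 h at room temperature in the dark, 520/495 nm TR-FRET was read. IC50 came from log concentration versus percent inhibition.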

[1] = test system: IL-17 production, human PBMC cells; assay: IL-17 production assay using human PBMC; assay type: cell-based; details: Homo sapiens, PBMC, 72 h, human PBMC stimulated by cytostim for 3 days, IL-17 ELISA of supernatant
How it was run: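 Cryopreserved human PBMCs, 1×10^5 per well in TexMACS, were treated with compound or vehicle (<0.5% DMSO) and stimulated with Cytostim (10 μL/mL) for 3 days at 37 °C. Supernatant IL-17 was measured by ELISA. IC50 was taken from concentration versus percent inhibition.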

## O=S(=O)(CC1CC1)c1ccc(C(O)c2nc3c(Cl)c(-c4ccccc4OC(F)(F)F)c(Cl)cc3[nH]2)cc1 (stereo not drawn) [Example 68, (4-((cyclopropylmethyl)sulfonyl)phenyl)(4,6-dichloro-5-(2-(trifluoromethoxy)phenyl)-1H-benzo[d]imidazol-2-yl)methanol]
RORγ LBD-GST tagged
  IC50: 0.03 µM
[1]
  IC50: 0.004 µM

## O=S(=O)(CC1CC1)c1ccc(Cc2nc3c(Cl)c(-c4ccccc4C(F)(F)F)c(Cl)cc3[nH]2)cc1 [Example 69, 4,6-dichloro-2-(4-((cyclopropylmethyl)sulfonyl)benzyl)-5-(2-(trifluoromethyl)phenyl)-1H-benzo[d]imidazole]
RORγ LBD-GST tagged
  IC50: 0.007 µM
[1]
  IC50: 0.056 µM

## O=S(=O)(CC1CC1)c1ccc(C(CO)c2nc3c(Cl)c(-c4ccccc4C(F)(F)F)c(Cl)cc3[nH]2)cc1 (stereo not drawn) [Example 70, 2-(4-((cyclopropylmethyl)sulfonyl)phenyl)-2-(4,6-dichloro-5-(2-(trifluoromethyl)phenyl)-1H-benzo[d]imidazol-2-yl)ethanol]
RORγ LBD-GST tagged
  IC50: 0.014 µM
[1]
  IC50: 0.006 µM

## O=S(=O)(CC1CC1)c1ccc(Cc2nc3c(Cl)c(-c4ccccc4OC(F)F)c(Cl)cc3[nH]2)cc1 [Example 72, 4,6-dichloro-2-(4-((cyclopropylmethyl)sulfonyl)benzyl)-5-(2-(difluoromethoxy)phenyl)-1H-benzo[d]imidazole]
RORγ LBD-GST tagged
  IC50: 0.006 µM
[1]
  IC50: 0.003 µM

## O=S(=O)(CC1CC1)c1ccc(C(CO)c2nc3c(Cl)c(-c4ccccc4OC(F)F)c(Cl)cc3[nH]2)cc1 (stereo not drawn) [Example 73, 2-(4-((cyclopropylmethyl)sulfonyl)phenyl)-2-(4,6-dichloro-5-(2-(difluoromethoxy)phenyl)-1H-benzo[d]imidazol-2-yl)ethanol]
RORγ LBD-GST tagged
  IC50: 0.029 µM
[1]
  IC50: 0.001 µM

## CCS(=O)(=O)c1ccc(C(CO)c2nc3c(Cl)c(-c4ccccc4OC(F)(F)F)c(Cl)cc3[nH]2)c(F)c1 (stereo not drawn) [Example 77, 2-(4,6-dichloro-5-(2-(trifluoromethoxy)phenyl)-1H-benzo[d]imidazol-2-yl)-2-(4-(ethylsulfonyl)-2-fluorophenyl)ethanol]
RORγ LBD-GST tagged
  IC50: 0.021 µM
[1]
  IC50: 0.017 µM

## CCS(=O)(=O)c1ccc(C(O)c2nc3c(Cl)c(-c4ccccc4OC(F)(F)F)c(Cl)cc3[nH]2)c(F)c1 (stereo not drawn) [Example 78, (4,6-dichloro-5-(2-(trifluoromethoxy)phenyl)-1H-benzo[d]imidazol-2-yl)(4-(ethylsulfonyl)-2-fluorophenyl)methanol]
RORγ LBD-GST tagged
  IC50: 0.028 µM
[1]
  IC50: 0.069 µM

## O=S(=O)(CC1CC1)c1ccc(Cc2nc3c(Cl)c(-c4ccccc4OC(F)(F)F)c(Cl)cc3[nH]2)c(F)c1 [Example 80, 4,6-dichloro-2-(4-((cyclopropylmethyl)sulfonyl)-2-fluorobenzyl)-5-(2-(trifluoromethoxy)phenyl)-1H-benzo[d]imidazole]
RORγ LBD-GST tagged
  IC50: 0.031 µM
[1]
  IC50: 0.013 µM

## O=S(=O)(CC1CC1)c1ccc(C(CO)c2nc3c(Cl)c(-c4ccccc4OC(F)(F)F)c(Cl)cc3[nH]2)c(F)c1 (stereo not drawn) [Example 81, 2-(4-((cyclopropylmethyl)sulfonyl)-2-fluorophenyl)-2-(4,6-dichloro-5-(2-(trifluoromethoxy)phenyl)-1H-benzo[d]imidazol-2-yl)ethanol]
RORγ LBD-GST tagged
  IC50: 0.035 µM
[1]
  IC50: 0.003 µM

## CCS(=O)(=O)c1ccc(C(CO)c2nc3c(Cl)c(-c4ccccc4OC(F)F)c(Cl)cc3[nH]2)c(F)c1 (stereo not drawn) [Example 84, 2-(4,6-dichloro-5-(2-(difluoromethoxy)phenyl)-1H-benzo[d]imidazol-2-yl)-2-(4-(ethylsulfonyl)-2-fluorophenyl)ethanol]
RORγ LBD-GST tagged
  IC50: 0.019 µM
[1]
  IC50: 0.013 µM

## CCS(=O)(=O)c1ccc(Cc2nc3c(Cl)c(-c4ccccc4OC(F)(F)F)c(Cl)cc3[nH]2)c(Cl)c1 [Example 86, 4,6-dichloro-2-(2-chloro-4-(ethylsulfonyl)benzyl)-5-(2-(trifluoromethoxy)phenyl)-1H-benzo[d]imidazole]
RORγ LBD-GST tagged
  IC50: 0.075 µM
[1]
  IC50: 0.023 µM

## O=S(=O)(CC1CC1)c1ccc(C(CO)c2nc3c(Cl)c(-c4ccccc4OC(F)F)c(Cl)cc3[nH]2)c(F)c1 (stereo not drawn) [Example 99, 2-(4-((cyclopropylmethyl)sulfonyl)-2-fluorophenyl)-2-(4,6-dichloro-5-(2-(difluoromethoxy)phenyl)-1H-benzo[d]imidazol-2-yl)ethanol]
RORγ LBD-GST tagged
  IC50: 0.025 µM
[1]
  IC50: 0.0024 µM

## O=S(=O)(CC1CC1)c1ccc(C(O)c2nc3c(Cl)c(-c4ccccc4OC(F)F)c(Cl)cc3[nH]2)c(F)c1 (stereo not drawn) [Example 100, (4-((cyclopropylmethyl)sulfonyl)-2-fluorophenyl)(4,6-dichloro-5-(2-(difluoromethoxy)phenyl)-1H-benzo[d]imidazol-2-yl)methanol]
RORγ LBD-GST tagged
  IC50: 0.014 µM
[1]
  IC50: 0.0013 µM

## CCS(=O)(=O)c1ccc(C(CO)c2nc3cc(-c4ccccc4OC(F)(F)F)c(Cl)cc3[nH]2)cc1 (stereo not drawn) [Example 119, 2-(6-chloro-5-(2-(trifluoromethoxy)phenyl)-1H-benzo[d]imidazol-2-yl)-2-(4-(ethylsulfonyl)phenyl)ethanol]
RORγ LBD-GST tagged
  IC50: 0.034 µM
[1]
  IC50: 0.124 µM

## O=S(=O)(NC1CC1)c1ccc(C(CO)c2nc3c(Cl)c(-c4ccccc4OC(F)(F)F)c(Cl)cc3[nH]2)cc1 (stereo not drawn) [Example 123, N-cyclopropyl-4-(1-(4,6-dichloro-5-(2-(trifluoromethoxy)phenyl)-1H-benzo[d]imidazol-2-yl)-2-hydroxyethyl)benzenesulfonamide]
RORγ LBD-GST tagged
  IC50: 0.03 µM
[1]
  IC50: 0.058 µM

## CC(C)Oc1ccccc1-c1cc2nc(C(CO)c3ccc(S(=O)(=O)CC4CC4)cc3)[nH]c2cc1Cl (stereo not drawn) [Example 124, 2-(6-chloro-5-(2-isopropoxyphenyl)-1H-benzo[d]imidazol-2-yl)-2-(4-((cyclopropylmethyl)sulfonyl)phenyl)ethanol]
RORγ LBD-GST tagged
  IC50: 0.205 µM
[1]
  IC50: 0.032 µM

## CCS(=O)(=O)c1ccc(Cc2nc3c(Cl)c(N4CCC(F)(F)CC4)c(Cl)cc3[nH]2)cc1 [Example 125, 4,6-dichloro-5-(4,4-difluoropiperidin-1-yl)-2-(4-(ethylsulfonyl)benzyl)-1H-benzo[d]imidazole]
RORγ LBD-GST tagged
  IC50: 0.059 µM
[1]
  IC50: 0.047 µM

## CCS(=O)(=O)c1ccc(C(CO)c2nc3cc(Cl)c(N4CCC(F)(F)CC4)c(Cl)c3[nH]2)cc1 (stereo not drawn) [Example 126, 2-(5,7-dichloro-6-(4,4-difluoropiperidin-1-yl)-1H-benzo[d]imidazol-2-yl)-2-(4-(ethylsulfonyl)phenyl)ethanol]
RORγ LBD-GST tagged
  IC50: 0.135 µM
[1]
  IC50: 0.008 µM

## O=S(=O)(CC1CC1)c1ccc(Cc2nc3cc(Cl)c(N4CCC(F)(F)CC4)c(Cl)c3[nH]2)cc1 [Example 127, 5,7-dichloro-2-(4-((cyclopropylmethyl)sulfonyl)benzyl)-6-(4,4-difluoropiperidin-1-yl)-1H-benzo[d]imidazole]
RORγ LBD-GST tagged
  IC50: 0.22 µM
[1]
  IC50: 0.013 µM

## NCC(c1ccc(S(=O)(=O)CC2CC2)cc1)c1nc2ccc(-c3ccccc3OC(F)F)c(Cl)c2[nH]1 (stereo not drawn) [Example 128, 2-(7-chloro-6-(2-(difluoromethoxy)phenyl)-1H-benzo[d]imidazol-2-yl)-2-(4-((cyclopropylmethyl)sulfonyl)phenyl)ethanamine]
RORγ LBD-GST tagged
  IC50: 0.006 µM
[1]
  IC50: 0.091 µM

## CC(=O)NCC(c1ccc(S(=O)(=O)CC2CC2)cc1)c1nc2cc(Cl)c(-c3ccccc3OC(F)F)cc2[nH]1 (stereo not drawn) [Example 129, N-(2-(5-chloro-6-(2-(difluoromethoxy)phenyl)-1H-benzo[d]imidazol-2-yl)-2-(4-((cyclopropylmethyl)sulfonyl)phenyl)ethyl)acetamide]
RORγ LBD-GST tagged
  IC50: 0.014 µM
[1]
  IC50: 0.242 µM
